Series [1] has as its system adhesion of adoptively-transferred leukocytes in the iridial microcirculation. The series is described as follows: Adoptive transfer of WT leukocytes into neutrophil-depleted WT mice with EIU. The series is classed as in vivo, mouse. The conditions noted are these: topical 1.5% w/v, 6 h post-EIU. The protocol:
For adoptive transfer experiments, calcein-AM-labelled leukocytes were visualized by fluorescence (495 nm excitation) in the iridial microcirculation using a Leica DMLM epifluorescence microscope (Leica, Wetzlar, Germany) equipped with a mercury-arc light source (LEG EBQ 100, Carl Zeiss, Jena, Germany) and captured by a CCD video camera (SIT 68, DAGE MTI, Michigan, IN, USA). Videos were recorded using WinDV Capture software (Mourek, Prague, Czech Republic) and stored on an external hard drive.
During IVM animals were placed on a heating pad in a stereotactic frame, and Tear-Gel® (Novartis Pharmaceuticals Canada Inc., Dorval, QC, Canada) was applied to their cornea. The iris was divided into four equal quadrants by drawing two superficial lines on the cornea, lengthwise and widthwise. […] Two to four videos of each quadrant were recorded for 30 s each. Videos were analyzed off-line without knowledge of the treatment groups. […] Using ImageJ software (National Institute of Health, Bethesda, MD, USA) the number of adherent leukocytes within each vessel segment was calculated by measuring the diameter and length of vessel segment studied, assuming a cylindrical geometry of blood vessels. Adherent leukocytes were expressed as number of cells per mm^2 of endothelial surface. […] The number of rolling leukocytes was counted for 30 s and used to calculate the number of rolling leukocytes per min. […]

The nature of series [2]: Plasma protein binding (equilibrium dialysis), human plasma. The series is classed as in vitro ADME. The note with it: pH 7.4, read-out: Plasma Protein Binding: FREE Fraction human. The protocol:
Pooled and frozen plasma from selected species were obtained from commercial suppliers […]
(human […] and mouse […]3-C57; BioreclamationIV, NY, USA). Teflon […]
equilibrium dialysis plates (96-well, 150 μL, half-cell capacity) and cellulose membranes (12–14 kDa molecular weight cut-off) were purchased from HT-Dialysis (Gales Ferry, Connecticut). Both biological matrix and phosphate buffer pH were adjusted to 7.4 on the day of the experiment. The reference substance was diazepam.
The determination of unbound compound was performed using a 96-well format equilibrium dialysis device with a molecular weight cut-off membrane of 12 to 14 kDa. […]
At equilibrium, the unbound drug concentration in the biological matrix compartment of the equilibrium dialysis apparatus is the same as the concentration of the compound in the buffer compartment. Thus, the percent unbound fraction was be calculated by determining the compound concentrations in the buffer and matrix compartments after dialysis as follows: % fraction unbound = 100 × buffer concentration after dialysis/matrix concentration after dialysis. […]
P-glycoprotein (permeability-glycoprotein (P-gp), also known as multidrug resistance protein 1) is the most studied and best characterized drug transporter. […] The effect of P-gp was measured by expressing the efflux ratio of the unidirectional A > B and B > A Papp values. […]

As for `CC(C)(C)c1nc(N2CC[C@H](O)C2)c2nnn(Cc3nnnn3C3CC3)c2n1` [RO6871304, (3S)-1-{5-tert-butyl-3-[(1-cyclopropyl-1H-tetrazol-5-yl)methyl]-3H-[1,2, 3]triazolo[4,5-d]pyrimidin-7-yl}pyrrolidin-3-ol], the “decrease of LPS-induced adhesion of adoptively-transferred leukocytes compared to vehicle” value in series [1] is given as 64 fold. Further, the fraction unbound at 5 h, 1000 nM in series [2] was 0.13.

(Values after article PMC6767236, “Selective Cannabinoid 2 Receptor Agonists as Potential Therapeutic Drugs for the Treatment of Endotoxin-Induced Uveitis” (Molecules, 2019).)
